# Measurements as given in patent EP4782453A1 (Beyang Therapeutics Co., Ltd., priority 2023, dated 2025).
# Read-outs that look alike come from different tables or passages of the source.
# Key:
# [1] = system: MEIS1 gene expression; test: Inhibition of MEIS1 gene expression in human tumor cells (qRT-PCR), MOLM-13; assay type: cell-based; details: MOLM-13 (carrying MLL-AF9), 48 hours of incubation, relative MEIS1 gene expression vs GAPDH
# Excerpt: Experimental Example 3: Evaluation of Inhibitory Activity of Compounds Against MEISI Gene Expression in Human Tumor Cells
# The effect of test samples on MEIS1 gene expression in vitro cultured human leukemia cells MV-4-11 (carrying MLL-AF4), MOLM-13 (carrying MLL-AF9), and OCI-AML3 (carrying NPM1c) was studied.
# • Human acute lymphoblastic leukemia cells MV-4-11, purchased from American Type Culture Collection, Catalog Number: CRL-9591; • Human acute myeloid leukemia cells MOLM-13, purchased from COBIOER BIOSCIENCES CO., LTD, Catalog Number: CBP60678; • Human acute myeloid leukemia cells OCI-AML3, purchased from COBIOER BIOSCIENCES CO., LTD, Catalog Number: CBP60817; • MEIS1 Primer/Probe, purchased from IDT, Catalog Number: 40831613; and • GAPDH Primer/Probe, purchased from IDT, Catalog Number: 22214836.
# MV-4-11 cells were cultured in an IMDM medium containing 10% fetal bovine serum, or MOLM-13 and OCI-AML3 cells were cultured in an RPMI-1640 medium containing 20% fetal bovine serum, each supplemented with 100 U·mL^-1 penicillin and 100 µg·mL^-1 streptomycin. These cells were cultured at 37°C with 5% CO2. The suspensions of individual cell lines were prepared in their respective media and seeded into 48-well plates at a density of 100,000 cells/well. On the day of the experiment, a compound stock solution was diluted in a 6-fold gradient using DMSO. Each gradient-diluted stock solution was then further diluted 250-fold with a complete medium to prepare a series of working solutions at different concentrations. Next, 250 µL of working solution (containing the complete medium with a 2-fold serial concentration of the test compound or a positive control compound, or containing a control complete medium) was added to each well. After 48 hours of incubation, cells from the 48-well plate were collected into 1 mL centrifuge tubes, centrifuged at 1000 rpm for 5 minutes, and the complete medium was removed. Cells were washed twice with 1 mL PBS and centrifuged to remove PBS. Total RNA was extracted using the RNeasy Mini Kit (250) (QIAGEN, 74106). The threshold cycle (Ct) value for gene expression was determined using the HiScript II U+ One Step qRT-PCR Probe Kit (Vazyme) (Vazyme, Q223-01), with 3 replicates per sample. The prepared reaction mixture was placed in an ABI 7500 real-time PCR instrument, and the reaction proceeded following the procedures below. [formula]
# Next, for the relative MEIS1 gene expression, the concentration (EC50) that inhibits 50% of relative MEIS1 gene expression was calculated using GraphPad Prism 8 software.
# [2] = molecular target: T1, Menin-MLL (Homo sapiens, UniProt O00255); test: Inhibitory activity against Menin-MLL binding (fluorescence polarization); details: 150 nM His-Menin, 15 nM FITC-MLL, 25°C for 60 min
# T1 construct: His-Menin (M1-L615 end); purchased BIORTUS BP9210
# T1 sequence (O00255 1-615 isoform O00255-1): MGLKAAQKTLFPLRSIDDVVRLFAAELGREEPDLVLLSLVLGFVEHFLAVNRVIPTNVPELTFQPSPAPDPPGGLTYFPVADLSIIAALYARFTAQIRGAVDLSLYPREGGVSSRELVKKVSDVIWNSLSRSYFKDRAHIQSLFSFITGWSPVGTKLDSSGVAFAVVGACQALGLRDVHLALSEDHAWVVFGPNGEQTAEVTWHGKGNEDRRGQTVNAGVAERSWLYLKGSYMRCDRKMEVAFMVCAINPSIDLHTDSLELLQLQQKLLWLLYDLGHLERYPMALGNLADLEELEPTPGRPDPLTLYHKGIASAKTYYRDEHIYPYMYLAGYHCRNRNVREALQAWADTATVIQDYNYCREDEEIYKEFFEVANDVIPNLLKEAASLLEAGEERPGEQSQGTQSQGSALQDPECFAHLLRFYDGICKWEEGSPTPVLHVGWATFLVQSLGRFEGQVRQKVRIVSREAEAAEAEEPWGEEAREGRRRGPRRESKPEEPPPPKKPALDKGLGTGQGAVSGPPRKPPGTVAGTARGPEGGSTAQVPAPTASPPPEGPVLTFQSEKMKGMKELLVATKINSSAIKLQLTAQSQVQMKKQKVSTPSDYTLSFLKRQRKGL
# In short: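 His-Menin (M1-L615, 150 nM) preincubated with compound 15 min at 25 °C in HEPES pH 7.5, 50 mM NaCl, 1 mM DTT, 0.01% BSA, then 15 nM FITC-MLL4-43 peptide added for 60 min at 25 °C. Fluorescence polarization read; IC50 from 4-parameter logistic fit, duplicates.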
# [3] = fluorescence polarization, read-out: Menin-MLL IC50
smiles,measurement,setting,value
"COCCN(C)CCCC(C(C)C)N1CC(c2cc(-c3ccc(F)cc3C(=O)N(CC(F)F)C(C)C)c3c(F)nc(C)n3c2)C1 (stereo not drawn) [Example 142, N-(2,2-difluoroethyl)-5-fluoro-2-[1-fluoro-6-(1-{6-[(2-methoxyethyl)(methyl)amino]-2-methylhexan-3-yl}azacyclobutan-3-yl)-3-methylimidazo[1,5-a]pyridin-8-yl]-N-(isopropyl)benzamide]",EC50,[1],2.3 nM
same,IC50,[2]; [3],10 nM
CCN(C(=O)c1cc(F)ccc1-c1cc(C2CN([C@H](CCCN3CCN(C)CC3)C(C)C)C2)cn2c(C)nc(F)c12)C(C)C [Example 312-2],EC50,[1],2.5 nM
same,IC50,[2]; [3],2.8 nM
Cc1nc(F)c2c(-c3ccc(F)cc3C(=O)N3CCOC[C@H]3C)cc(C3CN([C@H](CCCN4CCC(F)CC4)C(C)C)C3)cn12 [Example 314],EC50,[1],3.4 nM
same,IC50,[2]; [3],2.5 nM
COCCN(C)CCC[C@H](C(C)C)N1CC(c2cc(-c3ccc(F)cc3C(=O)N3CCOC[C@H]3C)c3c(F)nc(C)n3c2)C1 [Example 200-1],EC50,[1],1 nM
same,IC50,[2]; [3],4.3 nM
"CCS(=O)(=O)N[C@H]1CC[C@H](CN2CC(c3cc(-c4ccc(F)cc4C(=O)N4CCOC[C@H]4C)c4cnc(C)n4c3)C2)CC1 [Example 134, N-[(1r,4r)-4-{[3-(8-{4-fluoro-2-[(3R)-3-methylmorpholin-4-carbonyl]phenyl}-3-methylimidazo[1,5-a]pyridin-6-yl)azacyclobutan-1-yl]methyl}cyclohexyl]ethan-1-sulfonamide]",EC50,[1],53 nM
same,IC50,"[2]; Menin-MLL IC50, fluorescence polarization",17.5 nM
CCN1CCN(CCC[C@H](C(C)C)N2CC(c3cc(-c4ccc(F)cc4C(=O)N4CCOC[C@H]4C)c4cnc(C)n4c3)C2)CC1 [Example 324-2],EC50,[1],1.3 nM
same,IC50,[2]; [3],2.5 nM
"CCN(C(=O)c1cc(F)ccc1-c1cc(C2CN([C@H](CCCN3CCN(CCO)CC3)C(C)C)C2)cn2c(C)ncc12)C(C)C [Example 398, N-ethyl-5-fluoro-2-(6-{1-[(3R)-6-[4-(2-hydroxyethyl)piperazin-1-yl]-2-methylhexan-3-yl]azacyclobutan-3-yl}-3-methylimidazo[1,5-a]pyridin-8-yl)-N-(isopropyl)benzamide]",EC50,[1],2.6 nM
same,IC50,[2]; [3],1.9 nM
"Cc1nc(F)c2c(-c3ccc(F)cc3C(=O)N3CCOC[C@H]3C)cc(C3CN([C@H](CCCN4C[C@H]5C[C@@H]4CO5)C(C)C)C3)cn12 [Example 353, (1R,4R)-5-[(4R)-4-[3-(1-fluoro-8-{4-fluoro-2-[(3R)-3-methylmorpholin-4-carbonyl]phenyl}-3-methylimidazo[1,5-a]pyridin-6-yl)azacyclobutan-1-yl]-5-methylhexyl]-2-oxa-5-azabicyclo[2.2.1]heptane]",EC50,[1],2.4 nM
same,IC50,[2]; [3],2.6 nM
"CCN(C(=O)c1cc(F)ccc1-c1cc(C2CN([C@H](CCCN3C[C@H]4C[C@@H]3CO4)C(C)C)C2)cn2c(C)ncc12)C(C)C [Example 379, N-ethyl-5-fluoro-2-(3-methyl-6-{1-[(3R)-2-methyl-6-[(1R,4R)-2-oxa-5-azabicyclo[2.2.1]heptan-5-yl]hexan-3-yl]azacyclobutan-3-yl}imidazo[1,5-a]pyridin-8-yl)-N-(isopropyl)benzamide]",EC50,[1],2 nM
same,IC50,[2]; [3],1.8 nM
Cc1nc(F)c2c(-c3ccc(F)cc3C(=O)N3CCOC[C@H]3C)cc(C3CN([C@H](CCCN4CCC[C@H](O)C4)C(C)C)C3)cn12 [Example 293],EC50,[1],9.1 nM
same,IC50,[2]; [3],3.1 nM
COC1CCN(CCCC(C(C)C)N2CC(c3cc(-c4ccc(F)cc4C(=O)N4CCOCC4C)c4c(F)nc(C)n4c3)C2)C1 (stereo not drawn) [Example 201-1],EC50,[1],1 nM
same,IC50,[2]; [3],2.6 nM
"CC(=O)N1CCC([C@H](C)N2CC(c3cc(-c4ccc(F)cc4C(=O)N4CCOC[C@H]4C)c4c(F)nc(C)n4c3)C2)CC1 [Example 257-2, 1-{4-[(1S)-1-[3-(1-fluoro-8-{4-fluoro-2-[(3R)-3-methylmorpholin-4-carbonyl]phenyl}-3-methylimidazo[1,5-a]pyridin-6-yl)azacyclobutan-1-yl]ethyl]piperidin-1-yl}ethan-1-one]",EC50,[1],15 nM
same,IC50,[2]; [3],13.8 nM
"COC1CCN(CCC[C@H](C(C)C)N2CC(c3cc(-c4ccc(F)cc4C(=O)N4CCOC[C@H]4C)c4c(F)nc(C)n4c3)C2)CC1 [Example 204, (3R)-4-[5-fluoro-2-(1-fluoro-6-{1-[(3R)-6-(4-methoxypiperidin-1-yl)-2-methylhexan-3-yl]azacyclobutan-3-yl}-3-methylimidazo[1,5-a]pyridin-8-yl)benzoyl]-3-methylmorpholine]",EC50,[1],4.3 nM
same,IC50,[2]; [3],4.8 nM
"Cc1nc(F)c2c(-c3ccc(F)cc3C(=O)N3CCOC[C@H]3C)cc(C3CN([C@H](CCCN4CCN(C)CC4)C(C)C)C3)cn12 [Example 275, (3R)-4-[5-fluoro-2-(1-fluoro-3-methyl-6-{1-[(3R)-2-methyl-6-(4-methylpiperazin-1-yl)hexan-3-yl]azacyclobutan-3-yl}imidazo[1,5-a]pyridin-8-yl)benzoyl]-3-methylmorpholine]",EC50,[1],7.7 nM
same,IC50,[2]; [3],3.2 nM
"Cc1nc(F)c2c(-c3ccc(F)cc3C(=O)N3CCOC[C@H]3C)cc(C3CN([C@H](CO[C@H]4CCCN(C)C4)C(C)C)C3)cn12 [Example 321-2, (3R)-4-[5-fluoro-2-(1-fluoro-3-methyl-6-{1-[(2S)-3-methyl-1-{[(3S)-1-methylpiperidin-3-yl]oxy}butan-2-yl]azacyclobutan-3-yl}imidazo[1,5-a]pyridin-8yl)benzoyl]-3-methylmorpholine]",EC50,[1],10 nM
same,IC50,[2]; [3],3.8 nM
"CC[C@@H](C1CCN(C(C)=O)CC1)N1CC(c2cc(-c3ccc(F)cc3C(=O)N3CCOC[C@H]3C)c3c(F)nc(C)n3c2)C1 [Example 280-1, 1-{4-[(1S)-1-[3-(1-fluoro-8-{4-fluoro-2-[(3R)-3-methylmorpholin-4-carbonyl]phenyl}-3-methylimidazo[1,5-a]pyridin-6-yl)azacyclobutan-1-yl]propyl]piperidin-1-yl}ethan-1-one]",EC50,[1],23 nM
same,IC50,[2]; [3],15 nM
"CCN(C(=O)c1cc(F)ccc1-c1cc(C2CN([C@H](CN3CCN(CCO)CC3)C(C)C)C2)cn2c(C)ncc12)C(C)C [Example 431, N-ethyl-5-fluoro-2-(6-{1-[(2S)-1-[4-(2-hydroxylethyl)piperazin-1-yl]-3-methylbutan-2-yl]azacyclobutan-3-yl}-3methylimidazo[1,5-a]pyridin-8-yl)-N-(isopropyl)benzamide]",EC50,[1],4.6 nM
same,IC50,[2]; [3],3.9 nM
CCN1CCN(CCC[C@H](C(C)C)N2CC(c3cc(-c4ccc(F)cc4C(=O)N4CCOC[C@H]4C)c4c(F)nc(C)n4c3)C2)CC1 [Example 277],EC50,[1],3.3 nM
same,IC50,[2]; [3],3.3 nM
